“And” between values parts separate entries of the source, which are not always exact repeats. Equal entries are not always repeated.
Legend:
[1] = test system: Human macrophage-like THP-1 cells; assay: Kinome profiling with peptide arrays of kinase phosphorylation targets; assay type: cell-based; settings: cytokine 20 ng/mL, 15 min, relative to un-stimulated control cells
Procedure: Kinome profiling: Human monocytic THP-1 cells were differentiated to plastic-adherent macrophage-like cells by treatment with PMA as described above, the cells were rested for 24 hr and then stimulated with either IL-32 (20 ng/mL) or IL-17 (20 ng/mL) for 15 min.
Subsequently, cellular lysates were prepared in lysis buffer (containing 20 mM Tris-HCl pH 7.5, 150 mM NaCl, 1 mM EDTA, 1 mM EGTA, 1 mM sodium fluoride, 1 mM sodium orthovanadate, 2.5 mM sodium pyrophosphate, protease inhibitor cocktail (Sigma-Aldrich) and 1% (v/v) Triton X-100, as taught by Jalal et al. (2009, Genome to kinome: species-specific peptide arrays for kinome analysis. Sci. Signal 2:11). Peptide arrays representing phosphorylation targets of kinase activity were incubated with the cellular lysates for quantifying global kinase activity following the methods disclosed by Jalal et al. (2009). The trends of protein phosphorylation events upon stimulation with IL-32 and IL-17 were comprehensively analysed after normalization and background correction of signal strength following the methods disclosed by Jalal et al. (2009). The phosphorylations of the peptides on the array were quantitated in the cytokine-treated cells relative to the un-stimulated control cells.
Kinome profiling: Human macrophage-like THP-1 cells were differentiated to plastic-adherent macrophage-like cells by treatment with PMA as described above, after which the cells were rested for 24 hr and then stimulated with either IL-32 (20 ng/mL) or IL-17 (20 ng/mL) for 15 min. Subsequently, cellular lysates were prepared in lysis buffer (containing 20mM Tris-HCl pH 7.5, 150 mM NaCl, 1 mM EDTA, 1 mM EGTA, 1 mM sodium fluoride, 1 mM sodium orthovanadate, 2.5 mM sodium pyrophosphate, protease inhibitor cocktail (Sigma-Aldrich Canada Inc.) and 1% (v/v) Triton X-100, as taught by Mookherjee et al. (2006). Peptide arrays representing phosphorylation targets of kinase activity were incubated with the cellular lysates for quantifying global kinase activity as taught by Jalal et al. (2009, Genome to kinome: species-specific peptide arrays for kinome analysis. Sci. Signal 2:11). The trends of protein phosphorylation events upon stimulation with IL-32 and IL-17 were comprehensively analysed after normalization and background correction of signal strength as taught by Jalal et al. (2009). The phosphorylations of the peptides on the array were quantitated in the cytokine-treated cells relative to the un-stimulated control cells.
Differential phosphorylation events in THP-1 cells stimulated by IL-32 and IL-17: THP-1 cells were stimulated with either IL-17 (20 ng/ml) or IL-32 (20 ng/ml) for 15 min. The cellular lysates were incubated with peptide arrays representing phosphorylation targets of kinase activity for quantifying global kinase activity as previously described. The phosphorylation of the peptides on the array were quantitated in the cytokine-treated cells relative to the un-stimulated control cells after normalization and background correction of signal strength taught by Jalal et al. (2009).

[2] = test system: NF-κB subunits p50 and p65; assay: Translocation of NF-κB subunits p50 and p65 (nuclear extract immunoblots); assay type: cell-based, human; settings: 20 ng/mL, 30 mins
Procedure: Translocation of NF-κB subunits p50 and p65: Nuclear extracts were prepared employing NE-PER® extraction reagents (Thermo Fisher Scientific, Toronto, ON, Canada) as per the manufacturer's instructions. In order to monitor direct NF-κB activation, equivalent nuclear extracts (5-8 μg) were resolved on 4-12% NuPAGE® Bis-Tris gels (Invitrogen Canada Inc.) and transferred to nitrocellulose membranes. The membranes were blocked with TBST containing 3% fish skin gelatin (Sigma-Aldrich), and probed with antibodies specific for either NE-κB subunit p50 or p65, in TBST containing 1% fish gelatin. The membranes were also probed with antibody to human histone protein HADC-1 to assess the equivalent protein loading. […]
The presence of common targets in macrophages was supported by the observation that both IL-32 and IL-17 induced similar level of IL-23 mRNA expression (FIG. 8A) and chemokine IL-8 production in human macrophage-like THP-1 cells (FIG. 7C). […] Therefore to further evaluate similarity of induced downstream response in synovial fibroblasts, this study analyzed the direct activation of transcription factor NF-κB. […] We also monitored the activity of NF-κB using a luminescence assay in-vitro employing rabbit synovial fibroblast cell line (HIG-82) in the presence of IL-32 and IL-17. The activation of NF-κB was monitored after 4 and 6 hr of treatment. […]

IL-17: Recombinant human cytokine IL-17A/F from eBioscience, used as stimulant
Relative Fold change in phosphorylation, APE1 (P27695) S289 [1]: 1.52 fold and 1.28 fold | Relative Fold change in phosphorylation, Akt1 (P31749) S124/9 [1]: −3.27 fold | Relative Fold change in phosphorylation, CCR5 (P51681) S336/7 [1]: −2.62 fold | Relative Fold change in phosphorylation, CTNNB1 (P35222) T41/45 [1]: −4.12 fold | Relative Fold change in phosphorylation, DAPK1 (P53355) S308 [1]: 2.19 fold and 1.45 fold | Relative Fold change in phosphorylation, Daxx (Q9UER7) S668/71 [1]: −3.45 fold | Relative Fold change in phosphorylation, Grb10 (Q13322) S150 [1]: −1.86 fold | Relative Fold change in phosphorylation, Kit (P10721) Y721 [1]: −1.75 fold | Relative Fold change in phosphorylation, NFAT4 (Q12968) S163/5 [1]: −2.22 fold | Relative Fold change in phosphorylation, PKACa (P17612) S338 [1]: −1.64 fold | Relative Fold change in phosphorylation, STAT6 (P42226) Y641 [1]: −1.94 fold | Relative Fold change in phosphorylation, Smad3 (P84022) S422/3/5 [1]: −2.37 fold | Relative Fold change in phosphorylation, TAK1 (O43318) T184 [1]: −2.01 fold | Relative Fold change in phosphorylation, axin-1 (O15169) S486 [1]: −3.73 fold | Relative Fold change in phosphorylation, p53 (P04637) S6/9 [1]: −2.43 fold | Relative Fold change in phosphorylation, p300 (Q09472) S1834 [1]: 1.92 fold and 1.71 fold | Nuclear translocation of NF-κB p50 ([2]; FLS cells and macrophage-like THP-1 cells): mediated nuclear translocation | Nuclear translocation of NF-κB subunit p65 ([2]; FLS cells and macrophages): mediated
